# Measurements published in ChEMBL document CHEMBL2380195 (J Med Chem, 2013).
# Test system: not listed separately
# Assay: Binding affinity to human alpha1-acid glycoprotein by HPLC analysis relative to control
# Type: ADME
# Settings: pooled result: one value given for 2 cell lines, strains, targets or settings
row,Activity [%],Structure (SMILES)
1,95.7,Cc1onc(-c2ccc(Cl)o2)c1-c1ccccc1

# Molecular target: T1, Prostaglandin G/H synthase 1 (Homo sapiens, UniProt P23219)
# Assay: Inhibition of COX-1 (unknown origin) in platelet rich plasma assessed as inhibition of collagen-induced TXB2 formation incubated for 5 mins prior to collagen challenge measured for 5 mins by aggregometric analysis
# Settings: not given
# T1 sequence (P23219 whole entry): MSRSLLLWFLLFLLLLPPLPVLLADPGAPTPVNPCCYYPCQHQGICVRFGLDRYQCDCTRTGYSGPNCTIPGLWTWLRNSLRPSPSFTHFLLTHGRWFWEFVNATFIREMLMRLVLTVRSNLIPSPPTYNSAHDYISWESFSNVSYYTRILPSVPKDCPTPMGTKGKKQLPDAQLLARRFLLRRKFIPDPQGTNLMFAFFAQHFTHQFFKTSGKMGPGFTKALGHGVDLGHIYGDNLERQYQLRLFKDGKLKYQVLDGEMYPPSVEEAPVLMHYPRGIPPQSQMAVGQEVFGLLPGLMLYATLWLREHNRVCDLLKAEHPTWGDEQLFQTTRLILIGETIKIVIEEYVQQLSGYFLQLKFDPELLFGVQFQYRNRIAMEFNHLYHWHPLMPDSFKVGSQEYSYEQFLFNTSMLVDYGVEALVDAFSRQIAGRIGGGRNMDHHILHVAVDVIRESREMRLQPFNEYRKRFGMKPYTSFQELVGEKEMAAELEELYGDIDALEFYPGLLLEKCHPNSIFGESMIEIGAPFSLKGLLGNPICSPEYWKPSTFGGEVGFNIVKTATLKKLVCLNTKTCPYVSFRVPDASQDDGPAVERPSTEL
row,IC50 [µM],Structure (SMILES)
1,18.6,Cc1onc(-c2ccc(Cl)o2)c1-c1ccccc1

# Molecular target: T2, Prostaglandin G/H synthase 2 (Homo sapiens, UniProt P35354)
# T2 sequence (P35354 whole entry): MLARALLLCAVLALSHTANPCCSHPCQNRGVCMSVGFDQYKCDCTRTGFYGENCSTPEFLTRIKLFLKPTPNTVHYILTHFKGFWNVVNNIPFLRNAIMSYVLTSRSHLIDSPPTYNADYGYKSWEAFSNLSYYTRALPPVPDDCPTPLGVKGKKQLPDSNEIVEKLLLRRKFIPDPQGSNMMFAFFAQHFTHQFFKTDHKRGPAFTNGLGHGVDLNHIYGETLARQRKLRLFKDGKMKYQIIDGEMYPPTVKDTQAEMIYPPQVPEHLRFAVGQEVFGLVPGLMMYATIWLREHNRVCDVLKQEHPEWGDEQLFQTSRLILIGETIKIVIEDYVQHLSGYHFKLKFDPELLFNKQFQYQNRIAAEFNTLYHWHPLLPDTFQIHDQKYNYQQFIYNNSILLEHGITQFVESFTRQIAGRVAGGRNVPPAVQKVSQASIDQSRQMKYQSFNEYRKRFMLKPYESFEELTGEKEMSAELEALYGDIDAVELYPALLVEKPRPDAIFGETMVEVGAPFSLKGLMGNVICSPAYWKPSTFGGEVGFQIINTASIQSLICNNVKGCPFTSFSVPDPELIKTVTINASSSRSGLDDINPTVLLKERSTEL
# Assay: Inhibition of COX-2 in human whole blood assessed as inhibition of LPS-induced plasma PGE2 level by radioimmunoassay
# Settings: not given
row,Structure (SMILES),IC50 [µM]
1,O=C(O)c1onc(-c2ccc(Cl)o2)c1-c1ccccc1,> 100
2,CC(=O)/C(=C(\N)c1ccc(Cl)o1)c1ccccc1,> 100
3,O=C(OCCCO[N+](=O)[O-])c1onc(-c2ccc(Cl)o2)c1-c1ccccc1,> 100

# Further lines, results first:
row,IC50 [µM],Structure (SMILES)
1,0.27,Cc1onc(-c2cccc(Cl)c2)c1-c1ccccc1
2,17.2,Cc1onc(-c2ccc(Cl)o2)c1-c1ccc(F)cc1

# Molecular target: COX-1/COX-2 (Homo sapiens) (UniProt P35354+P23219)
# Assay: Selectivity ratio of IC50 for COX-2 in human whole blood to COX-1 in human whole blood
# Type: tissue-based
# Settings: not given
# Chain of COX-1/COX-2 (Homo sapiens) (P23219 whole entry, looked up, one chain of several): as the sequence (P23219 whole entry) above
row,Ratio IC50,Structure (SMILES)
1,0.21,Cc1onc(-c2cccc(Cl)c2)c1-c1ccccc1
2,9.05,Cc1onc(-c2ccc(Cl)o2)c1-c1ccc(F)cc1

# Molecular target: T1, Prostaglandin G/H synthase 1
# Assay: Inhibition of COX-1 in human whole blood assessed as inhibition of serum TXB2 level after 1 hr by radioimmunoassay
# Settings: not given
row,IC50 [µM],Structure (SMILES)
1,1.3,Cc1onc(-c2cccc(Cl)c2)c1-c1ccccc1
2,> 100,O=C(O)c1onc(-c2ccc(Cl)o2)c1-c1ccccc1
3,> 100,CC(=O)/C(=C(\N)c1ccc(Cl)o1)c1ccccc1
4,> 100,O=C(OCCCO[N+](=O)[O-])c1onc(-c2ccc(Cl)o2)c1-c1ccccc1

# Molecular target: T1, Prostaglandin G/H synthase 1
# Assay: Inhibition of COX-1 (unknown origin) in platelet rich plasma assessed as inhibition of arachidonic acid-induced TXB2 formation incubated for 5 mins prior to arachidonic acid challenge measured for 5 mins by aggregometric analysis
# Settings: not given
row,IC50 [µM],Structure (SMILES)
1,12,Cc1onc(-c2ccc(Cl)o2)c1-c1ccccc1
